Assay results taken from paper PMC4413215, “New Prenylated Aeruginosin, Microphycin, Anabaenopeptin and Micropeptin Analogues from a Microcystis Bloom Material Collected in Kibbutz Kfar Blum, Israel” (Marine Drugs, 2015).
Read-outs that look alike come from different tables or passages of the source. *1 amine or outer side, *2 acyl side, *3 side chain or, on linkers, in order; H or OH if unused. Where a SMILES comes first, the peptide text is derived from it. Bridges are numbered along the chain shown (N, C = ends). [ ]: non-standard residue; d: D form. NMehTyr = CN[C@@H](CCc1ccc(O)cc1)C(=O)O; hPhe = N[C@@H](CCc1ccccc1)C(=O)O; CO = O=C([*:1])[*:2]

Tests used:
chymotrypsin = chymotrypsin (Bos taurus, UniProt P00766); test: Protease inhibition assay: chymotrypsin; assay type: biochemical; details: for inhibition of chymotrypsin, in words: discussion of Table 5
Procedure: (§1) Optical rotation values were obtained on a Jasco P-1010 polarimeter at the sodium D line (589 nm; concentrations are reported in g/100 mL. UV spectra were recorded on an Agilent 8453 spectrophotometer (Santa Clara, California, CA, USA). IR spectra were recorded on a Bruker Tensor 27 FT-IR instrument (Billerica, Massachusetts, MA, USA). NMR spectra were recorded on a Bruker DRX-500 spectrometer at 500.13 MHz for ^1H and 125.76 MHz for ^13C and a Bruker Avance 400 Spectrometer at 400.13 MHz for ^1H, 100.62 MHz for ^13C (Billerica, Massachusetts, MA, USA). DEPT, COSY-45, gTOCSY, gROESY, gHSQC, gHMQC and gHMBC spectra were recorded using standard Bruker pulse sequences. Mass spectra and MS/MS analyses were recorded on a Waters MaldiSynapt instrument (Milford, Massachusetts, MA, USA). HPLC separations were performed on a Jasco HPLC system (Halifax, Nova-Scotia, NS, Canada) (Model PU-2080-plus pump, Model LG-2080-04 Quaternary gradient unit and Model MD-2010-plus Multi-wavelength detector). An Elisa ELx808 reader (Bio-Tek Instruments, Inc (Winooski, VT, USA)) was used for protease inhibition assays.
(§2) The procedures used to determine the inhibitory activity of the new compounds on trypsin and chymotrypsin were described in a previous paper. The range of concentrations used in the assays was between 45.5 μM and 0.011 μM.

trypsin [1] = target: T1, trypsin (Bos taurus, UniProt P00760); test: Protease inhibition assay: trypsin; assay type: biochemical; details: discussion of Table 5
T1 sequence (P00760 24-246): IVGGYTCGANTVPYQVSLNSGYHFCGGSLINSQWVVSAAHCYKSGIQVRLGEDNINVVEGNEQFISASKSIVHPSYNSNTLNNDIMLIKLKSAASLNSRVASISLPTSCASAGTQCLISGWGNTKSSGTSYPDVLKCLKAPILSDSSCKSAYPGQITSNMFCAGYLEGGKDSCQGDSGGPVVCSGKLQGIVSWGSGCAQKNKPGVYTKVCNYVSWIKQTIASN
Procedure: as §1, §2

trypsin [2] = target: T1, trypsin; set-up: method as in PMID 22280481; details: read-out: IC50 (against trypsin); cited from earlier work

Row | SMILES | IC50 (chymotrypsin) | also measured
1 | CC[C@H](C)[C@@H]1NC(=O)[C@H](NC(=O)N[C@@H](CCCNC(=N)N)C(=O)O)CCCCNC(=O)[C@H]([C@@H](C)CC)NC(=O)[C@H](CCc2ccc(O)cc2)N(C)C(=O)[C@H](CCc2ccccc2)NC1=O [Anabaenopeptin KB906 (3), Anabaenopeptin KB906] ({Arg-CO}-[dK]I[hPhe][NMehTyr]I; lactam 1-C) | > 45.5 µM | –
2 | CC(C)=CCN(CCCCNC(=O)C1CC2CCC(O)CC2N1C(=O)C(Cc1ccccc1)NC(=O)C(O)Cc1ccc(O)cc1)C(=N)N (centres unmarked) [Aeruginosin KB676 (1), Aeruginosin KB676] | – | inhibition of trypsin, in words (trypsin [1]): weak inhibitory activity; IC50 (chymotrypsin; concentration range 45.5 μM to 0.011 μM, read-out: Chymotrypsin (IC50 in μM)): > 45.5 µM
3 | CCCCCC(=O)N[C@@H](CC(=O)OC)C(=O)N[C@@H]1C(=O)N[C@@H](CCCNC(=N)N)C(=O)N[C@H]2CC[C@@H](OC)N(C2=O)[C@@H](C(C)C)C(=O)N(C)[C@@H](Cc2ccccc2)C(=O)N[C@@H](C(C)C)C(=O)O[C@@H]1C [Micropeptin KB970C (10), Micropeptin KB970C] | > 45.5 µM | –
4 | CCCCCC(=O)N[C@@H](CC(=O)OC)C(=O)N[C@@H]1C(=O)N[C@@H](CCCNC(=N)N)C(=O)N[C@H]2CC[C@@H](O)N(C2=O)[C@@H](C(C)C)C(=O)N(C)[C@@H](Cc2ccccc2)C(=O)N[C@@H]([C@@H](C)CC)C(=O)O[C@@H]1C [Micropeptin KB970A (7), Micropeptin KB970A] | > 45.5 µM | –
5 | CCCCCC(=O)N[C@@H](CC(=O)OC)C(=O)N[C@@H]1C(=O)N[C@@H](CCCNC(=N)N)C(=O)N[C@H]2CC[C@@H](OC)N(C2=O)[C@@H]([C@@H](C)CC)C(=O)N(C)[C@@H](Cc2ccc(O)c(Cl)c2)C(=O)N[C@@H]([C@H](C)CC)C(=O)O[C@@H]1C [Micropeptin KB1048 (11), Micropeptin KB1048] | 0.63 µM | inhibition of chymotrypsin, in words (chymotrypsin): inhibition of chymotrypsin
6 | CCCCCC(=O)N[C@@H](CC(=O)O)C(=O)N[C@@H]1C(=O)N[C@@H](CCCNC(=N)N)C(=O)N[C@H]2CC[C@@H](OC)N(C2=O)[C@@H](C(C)C)C(=O)N(C)[C@@H](Cc2ccccc2)C(=O)N[C@@H]([C@@H](C)CC)C(=O)O[C@@H]1C [Micropeptin KB970B (8), Micropeptin KB970B] | > 45.5 µM | –
7 | NC(N)=NCCCCNC(=O)[C@H]1C[C@H]2CC[C@@H](O)C[C@H]2N1C(=O)[C@@H](Cc1ccccc1)NC(=O)[C@H](O)Cc1ccc(O)cc1 [aeruginosin KT608B] | – | IC50 (trypsin [2]): 1.3 µM
8 | CC[C@H](C)[C@H]1C(=O)N(C)[C@@H](Cc2ccccc2)C(=O)N[C@@H](C(C)C)C(=O)O[C@H](C)[C@H](NC(=O)[C@H](CC(N)=O)NC(=O)[C@H](O)Cc2ccc(O)cc2)C(=O)N[C@@H](CC(C)C)C(=O)N[C@H]2CC[C@@H](OC)N1C2=O [Micropeptin KB992 (12), Micropeptin KB992] | 0.87 µM | inhibition of chymotrypsin, in words (chymotrypsin): inhibition of chymotrypsin
9 | CC(C)C[C@@H]1NC(=O)[C@@H]2CCCN2C(=O)[C@H](C)NC(=O)[C@H](CCC(N)=O)NC(=O)[C@H](C)NC(=O)[C@H](Cc2ccccc2)NC(=O)[C@H](Cc2ccccc2)NC(=O)[C@H](Cc2ccccc2)NC1=O [Microphycin KB921 (2), Microphycin KB921] (cyclo(APLFFFAQ)) | > 45.5 µM | –
10 | CCCC(=O)N[C@@H](CC(=O)O)C(=O)N[C@@H]1C(=O)N[C@@H](CCCNC(=N)N)C(=O)N[C@H]2CC[C@@H](O)N(C2=O)[C@@H](C(C)C)C(=O)N(C)[C@@H](Cc2ccccc2)C(=O)N[C@@H]([C@@H](C)CC)C(=O)O[C@@H]1C [Micropeptin KB928 (5), Micropeptin KB928] | > 45.5 µM | –
11 | CC[C@H](C)[C@@H]1NC(=O)[C@H](Cc2ccccc2)N(C)C(=O)[C@H](C(C)C)N2C(=O)[C@H](CC[C@H]2O)NC(=O)[C@H](C[C@H]2C=C[C@H](O)CC2)NC(=O)[C@@H](NC(=O)[C@H](CCC(N)=O)NC(=O)[C@H](O)Cc2ccc(O)cc2)[C@@H](C)OC1=O [Micropeptin KB1046 (13), Micropeptin KB1046] | 0.22 µM | inhibition of chymotrypsin, in words (chymotrypsin): inhibition of chymotrypsin
12 | CCCCCC(=O)N[C@@H](CC(=O)OC)C(=O)N[C@@H]1C(=O)N[C@@H](CCCNC(=N)N)C(=O)N[C@H]2CC[C@@H](OC)N(C2=O)[C@@H](C(C)C)C(=O)N(C)[C@@H](Cc2ccccc2)C(=O)N[C@@H]([C@@H](C)CC)C(=O)O[C@@H]1C [Micropeptin KB984 (9), Micropeptin KB984] | > 45.5 µM | –
13 | CCCC(=O)N[C@@H](CC(=O)OC)C(=O)N[C@@H]1C(=O)N[C@@H](CCCNC(=N)N)C(=O)N[C@H]2CC[C@@H](OC)N(C2=O)[C@@H](C(C)C)C(=O)N(C)[C@@H](Cc2ccccc2)C(=O)N[C@@H]([C@@H](C)CC)C(=O)O[C@@H]1C [Micropeptin KB956 (6), Micropeptin KB956] | > 45.5 µM | –
